Data published in patent publication US20060264455A1 (priority 2005, published 2006).

Legend:
motor skills on rotorod = assay: Toxicity Model (TOX), rotorod, mice; format: in vivo; details: for N/F (mice showing an effect / mice tested), TOX: ip; for Behavioral motor impairment, share of mice tested: po
From the text: (§1) To investigate the neurotoxicity levels of the huperzine compounds, the Toxicity Model (TOX) using a rotorod is employed. The animals (e.g., mice) were trained to stand on an accelerating rotorod rotating at 10 rev min^−1 with a diameter of 3.2 cm. The trained animal can be given the huperzine compound at various doses and the effect of huperzine on their motor skills can be determined. The dose at which the animals fell off the rotorod is the toxic dose.
(§2) The neurotoxicity of huperzine was tested in the rotorod test. The mice were trained to stand on an accelerating rotorod rotating at 10 rev min^−1 with a diameter of 3.2 cm. The trained animals were given the huperzine at various doses and the effect of huperzine on their motor skills was determined. The dose at which the animals fell off the rotorod was the toxic dose.

[1] = Toxicity Model (TOX), rotorod, mice; format: in vivo; details: male, CFI, mouse, in vivo, ip; mice
From the text: as §1, §2

## C/C=C1\[C@H]2C=C(C)C[C@]1(N)c1ccc(=O)[nH]c1C2 [Huperzine A]
Motor skills on rotorod; 5 mg/kg I.P., within 30 minutes post administration
  Toxicity: toxic in all animals
Motor skills on rotorod; mouse, in vivo
  Behavioral impairment: marked motor impairment
Motor skills on rotorod; mouse, in vivo, 0.1 mg/kg, 4 h
  N/F (mice showing an effect / mice tested), TOX: 0/4
Motor skills on rotorod; mouse, in vivo, 0.3 mg/kg, 4 h
  N/F (mice showing an effect / mice tested), TOX: 0/4
Motor skills on rotorod; mouse, in vivo, 1 mg/kg, 0.5 h
  N/F (mice showing an effect / mice tested), TOX: 4/4
Motor skills on rotorod; mouse, in vivo, 1 mg/kg, 4 h
  N/F (mice showing an effect / mice tested), TOX: 2/2
Motor skills on rotorod; mouse, in vivo, 3 mg/kg, 0.5 h
  N/F (mice showing an effect / mice tested), TOX: 8/8
Motor skills on rotorod; mouse, in vivo, 3 mg/kg, 4 h
  N/F (mice showing an effect / mice tested), TOX: 4/4
Motor skills on rotorod; mouse, in vivo, 10 mg/kg, 0.5 h
  N/F (mice showing an effect / mice tested), TOX: 4/4
Motor skills on rotorod; mouse, in vivo, 10 mg/kg, 4 h
  N/F (mice showing an effect / mice tested), TOX: 2/2
Motor skills on rotorod; mouse, in vivo, 30 mg/kg, 0.5 h
  N/F (mice showing an effect / mice tested), TOX: 4/4
Motor skills on rotorod; mouse, in vivo, 100 mg/kg, 0.5 h
  N/F (mice showing an effect / mice tested), TOX: 8/8
Motor skills on rotorod; mouse, in vivo, 300 mg/kg, 0.5 h
  N/F (mice showing an effect / mice tested), TOX: 4/4
Motor skills on rotorod; mouse, in vivo, 2 mg/kg
  Behavioral motor impairment, share of mice tested: 75%
Motor skills on rotorod; mouse, in vivo, 4 mg/kg
  Behavioral motor impairment, share of mice tested: 100%
[1]
  TD50: 0.83 mg/kg
